Key:
[1] = molecular target: T1, CXCR4 (Homo sapiens, UniProt P61073); experiment: Primary binding affinity screening (competition with biotinylated TN14003)
T1 construct: endogenous in cells; host or cells: MDA-MB-231
Procedure: The compounds were initially screened with a binding affinity assay. […] MDA-MB-231 cells were pre-incubated with compounds at concentrations of 1, 10, 100, and 1000 nM, then incubated with biotinylated TN14003 and streptavidin-conjugated rhodamine to determine the binding efficiency of the new compounds to the CXCL12 binding domain of CXCR4. […] Thus, this screening is a semi-quantitative, first pass measure of the level of activity.
For binding affinity assay, 2×10^4 MDA-MB-231 cells in 300 μL of cell culture medium were seeded in an 8-well slide chamber 2 days before the experiments were conducted. Various concentrations of different compounds (1, 10, 100, or 1000 nM) were added to the separate wells and incubated for 10 min at room temperature, and then the cells were fixed in 4% ice-cold paraformaldehyde. The cells were rehydrated in phosphate-buffered saline (PBS). The slides were subsequently incubated for 30 min at room temperature with 0.05 μg/mL biotinylated TN14003, washed three times with PBS, and incubated in streptavidin-rhodamine (1:150 dilution; Jackson ImmunoResearch Laboratories, West Grove, Pa.) for 30 min at room temperature. Finally, the slides were washed with PBS and mounted in an anti-fade mounting solution (Molecular Probes, Eugene, Oreg.), and the samples were analyzed on a Nikon Eclipse E800 microscope.

[2] = tested on: CXCR4/CXCL12-mediated chemotaxis and invasion; experiment: Matrigel invasion assay; type: cell-based; conditions: for inhibition at 0.1 µM: single concentration of 100 nM, CXCL12 as chemoattractant, FIG. 2, read-out: inhibitory rate, Matrigel invasion; for Invasion: Table 3, concentration used 100 nM
Source text: To model in vitro metastasis, a Matrigel® invasion assay was used as the functional assay. […] A layer of Matrigel® matrix-coated permeable support (8 μm pore diameter) separates the upper and lower chambers.

[3] = tested on: carrageenan-induced mouse paw edema; experiment: In vivo suppression against carrageenan-induced paw edema; conditions: for Carageenan: Table 3, mice dosed 10 mg of compound per kg
Procedure: CXCR4 plays a role in the recruitment of inflammatory cells to sites of inflammation. Blocking CXCR4 is a therapeutic strategy in inflammatory diseases. A carrageenan-induced mouse paw edema model as an efficient model to evaluate the in vivo CXCR4 antagonistic activity for CXCR4 inhibitors.
Acute inflammation was induced by subcutaneous injection of 50 μL of λ-carrageenan (1% w/v in saline) into one of the hind paws of the female C57BL/6J mice (Jackson Laboratories); the other hind paw was injected with 50 μL of saline, which was used as a non-inflammation control. The selected compounds were dissolved in 10% DMSO and 90% of 45% (2-hydroxypropyl)-β-cyclodextrin (CD) in PBS. In the treatment group, compounds IIg, IIk, IIm and IIn were administered intraperitoneally (i.p.) at 10 mg/kg daily, while TN14003 was administered at 300 μg/kg, i.p., daily, 30 min following carrageenan challenge. The rationale for using 300 μg/kg for TN14003 was that this concentration was reported to be the minimum concentration needed to achieve the maximum efficacy of this compound in a […] metastasis animal model. See Yoon et al. CXC chemokine receptor-4 antagonist blocks both growth of primary tumor and metastasis of head and neck cancer in xenograft mouse models. Cancer Res., 67 (2007), pp. 7518-7524. Control animals received corresponding i.p. injections of the vehicle. The animals were sacrificed 74 h after carrageenan challenge and 2 h after the last injection of the selected compounds. The final paws were photographed and measured for thickness from the “palm” to the back of the paw with a caliper. These were compared to the volume of carrageenan-untreated contralateral paw to obtain the edema volume; the volume of the contralateral paw was subtracted from the volume of the carrageenan injected paw to obtain the edema volume. The inflammation-suppression percentage was calculated by comparing the drug-treated group to the control group.

[4] = tested on: carrageenan-induced mouse paw edema; experiment: as above; conditions: 10 mg/kg i.p. daily; paw tissue histology
[5] = effective concentration = lowest concentration with significant reduction of rhodamine fluorescence, MDA-MB-231 cells, tested at 1, 10, 100, 1000 nM

T1 sequence (P61073 whole entry): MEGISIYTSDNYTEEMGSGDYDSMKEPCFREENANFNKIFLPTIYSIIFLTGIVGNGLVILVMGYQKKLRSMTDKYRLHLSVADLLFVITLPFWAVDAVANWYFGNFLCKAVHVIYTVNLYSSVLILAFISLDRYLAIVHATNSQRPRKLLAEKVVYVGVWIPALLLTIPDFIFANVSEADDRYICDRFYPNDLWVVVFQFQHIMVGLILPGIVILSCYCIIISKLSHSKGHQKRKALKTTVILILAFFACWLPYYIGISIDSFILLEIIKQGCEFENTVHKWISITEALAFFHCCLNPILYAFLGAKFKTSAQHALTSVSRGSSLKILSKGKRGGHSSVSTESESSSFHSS

Structure (SMILES) | EC [1, 5] | melting point | inhibition at 0.1 µM [2] | also measured
c1cc(CN2CCOCC2)ccc1CN1CCOCC1 [Ic, 1,4-Bis(morpholinomethyl)benzene] | >1000 nM | 113 to 115 °C |  | 
CN(Cc1ccc(F)cc1)Cc1ccc(CN(C)Cc2ccc(F)cc2)cc1 [Ij, N,N′-(1,4-Phenylenebis(methylene))bis(1-(4-fluorophenyl)-N-methylmethanamine)] | >1000 nM | 80 to 82 °C |  | 
c1cc(CN2CCOCC2)nc(CN2CCOCC2)c1 [2,6-Bis(morpholinylmethyl)pyridine] |  |  |  | Carageenan [3]: 39.1%; EC ([1]; Table 3): 10 nM; Invasion [2]: 63%
c1ccc(NCc2ccc(CNc3ccccn3)cc2)nc1 [WZ811, reference compound] |  |  |  | Carageenan [3]: 40%; EC ([1]; Table 3): 10 nM; Invasion [2]: 90%
CN(Cc1ccccn1)Cc1cccc(CN(C)Cc2ccccn2)n1 [IIn, N,N′-(Pyridine-2,6-diylbis(methylene))bis(N-methyl-1-(pyridin-2-yl)methanamine)] | 10 nM |  | 72.6% | inflammation-suppression percentage (paw edema) ([3]; 10 mg/kg i.p. daily, female C57BL/6J mice, 74 h after carrageenan challenge): 50%; mouse paw inflammation and damage in histological assay [4]: significantly attenuated

More lines, main results first:

EC [1, 5] | melting point | Structure (SMILES) | inhibition at 0.1 µM [2] | also measured
1000 nM | 91 to 93 °C | CN(Cc1cccc(CN(C)c2ccccc2)n1)c1ccccc1 [IId, N,N′-(Pyridine-2,6-diylbis(methylene))bis(N-methylaniline)] |  | 
10 nM | 84 to 86 °C | c1cc(CN2CCCCC2)ccc1CN1CCCCC1 [Ib, 1,4-Bis(piperidin-1-ylmethyl)benzene] | < 50% | 
1000 nM | 77 to 79 °C | CN(Cc1ccc(CN(C)c2ccccc2)cc1)c1ccccc1 [Id, N,N′-(1,4-Phenylenebis(methylene))bis(N-methylaniline)] |  | 
100 nM | 78 to 80 °C | CN(Cc1ccc(CN(C)c2ccc(F)cc2)cc1)c1ccc(F)cc1 [Ie, N,N′-(1,4-phenylenebis(methylene))bis(4-fluoro-N-methylaniline)] | 66.4% | 

Reference: patent US10709697B2, “Bis-amines, compositions, and uses related to CXCR4 inhibition” (Emory University, priority 2015, dated 2020)
